Experiments:
CG6178 = molecular target: T1, CG6178 (Drosophila melanogaster, UniProt Q9VCC6); assay: X-ray crystal structure, […] Å; type: binding; conditions: active site; co-purified fatty acid adenylated with 10 mM ATP, ligand modelled as best fit to density; pH 7.5, 25 °C
T1 construct: gene Dmel\CG6178; full length, 544 residues; GST fusion from pGEX-6P-1 in E. coli BL21(DE3), GST cleaved with PreScission protease
T1 sequence (Q9VCC6 1-544): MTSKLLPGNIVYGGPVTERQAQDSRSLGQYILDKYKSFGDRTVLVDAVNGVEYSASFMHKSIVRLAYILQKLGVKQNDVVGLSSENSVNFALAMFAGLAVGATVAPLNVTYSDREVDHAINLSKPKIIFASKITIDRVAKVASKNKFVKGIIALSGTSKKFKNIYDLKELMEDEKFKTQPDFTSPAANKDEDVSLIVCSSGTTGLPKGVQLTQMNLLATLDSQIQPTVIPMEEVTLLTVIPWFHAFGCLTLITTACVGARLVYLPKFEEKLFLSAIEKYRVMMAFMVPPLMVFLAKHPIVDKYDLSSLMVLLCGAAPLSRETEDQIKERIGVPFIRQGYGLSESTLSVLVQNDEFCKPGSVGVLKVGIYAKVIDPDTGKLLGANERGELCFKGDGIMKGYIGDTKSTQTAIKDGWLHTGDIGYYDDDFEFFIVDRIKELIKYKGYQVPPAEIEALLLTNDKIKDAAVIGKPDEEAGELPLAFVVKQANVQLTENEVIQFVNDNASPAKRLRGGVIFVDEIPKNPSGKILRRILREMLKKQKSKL

Fluc = molecular target: T2, Fluc (Photinus pyralis, UniProt P08659); assay: live-cell bioluminescence imaging (IVIS-100); type: cell-based; conditions: transfected CHO cells, 0.122-250 μM substrate
T2 construct: luc2 gene in pcDNA3.1, transfected CHO cells
T2 sequence (P08659 whole entry): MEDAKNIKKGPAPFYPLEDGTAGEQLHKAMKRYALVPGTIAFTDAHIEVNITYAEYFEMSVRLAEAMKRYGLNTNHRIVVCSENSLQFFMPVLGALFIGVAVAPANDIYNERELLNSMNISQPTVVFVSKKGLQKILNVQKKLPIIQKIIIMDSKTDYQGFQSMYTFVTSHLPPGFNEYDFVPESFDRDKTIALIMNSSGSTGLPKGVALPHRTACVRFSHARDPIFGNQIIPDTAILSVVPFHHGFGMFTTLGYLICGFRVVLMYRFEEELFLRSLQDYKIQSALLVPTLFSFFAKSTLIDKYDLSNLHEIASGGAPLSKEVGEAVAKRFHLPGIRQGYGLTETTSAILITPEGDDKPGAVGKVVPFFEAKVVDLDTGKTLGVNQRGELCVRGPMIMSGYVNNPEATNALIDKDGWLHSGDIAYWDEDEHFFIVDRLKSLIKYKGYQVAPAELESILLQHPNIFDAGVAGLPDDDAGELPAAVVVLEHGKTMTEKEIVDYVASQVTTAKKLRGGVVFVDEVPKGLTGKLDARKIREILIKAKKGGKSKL

| SMILES | X-ray crystal structure, 2.5 Å (CG6178) | live-cell bioluminescence imaging (IVIS-100) (Fluc) |
| --- | --- | --- |
| CCCCCCCC(=O)OP(=O)(O)OC[C@H]1O[C@@H](n2cnc3c(N)ncnc32)[C@H](O)[C@@H]1O [octanoyl-AMP] | octanoyl-AMP (C8) and an ethylene glycol in the active site is most consistent with the data | – |
| CN1CCc2cc3nc(C4=N[C@@H](C(=O)O)CS4)sc3cc21 [CycLuc2] | – | relative performance of all three enzymes with CycLuc2 |
